Starred links: 1 amine or outer side, 2 acyl side, 3 side chain; linkers in the order of their positions; H or OH if unused. Positions of bridges follow the written chain, without caps; N, C: chain ends. Non-standard residues stand in square brackets, D forms with d. Residues, ends and D or L forms follow the SMILES beside them. 1Nal = N[C@@H](Cc1cccc2ccccc12)C(=O)O; TBMB = c1c(C[*:1])cc(C[*:3])cc1C[*:2]; Tle = CC(C)(C)[C@H](N)C(=O)O; βAla = NCCC(=O)O; Sar = CNCC(=O)O
What was measured:
[1] = target: T1, MT1-MMP hemopexin domain (Homo sapiens, UniProt P50281); assay: Fluorescence polarisation competition binding to MT1-MMP hemopexin domain; details: read-out: Binding Affinity Ki(h)
T1 construct: residues Cys319-Gly511 from the human gene; His6 (N); made in house; host or cells: HEK293 (transient, pEXPR-IBA42 vector)
Text: The MT1-MMP hemopexin-like repeats (also known as the MT1-MMP hemopexin domain), residues Cys319-Gly511 from the human gene, were transiently expressed in HEK293 cells as secreted N-terminally His6-tagged soluble protein, using the pEXPR-IBA42 (IBA) expression vector. Following expression, the protein was purified by Nickel-NTA affinity chromatography followed by gel filtration, and purity was checked by SDS-PAGE. Batch to batch variability was also monitored by fluorescence thermal shift experiments in the presence/absence of a hemopexin domain binding bicycle.
Binding affinity was measured using competition assays using Fluorescence Polarisation (anisotropy). […]
Here, a pre-formed complex of PEX with the fluorescent PEX-binding tracer is titrated with free, non-fluoresceinated bicyclic peptide. […] Dissociation of the complex can be measured quantitatively, and the Kd of the competitor (titrant) to the target protein determined. The advantage of the competition method is that the affinities of non-fluoresceinated bicyclic peptides can be determined accurately and rapidly.
Subsequently, the non-fluorescent competitor bicyclic peptide (usually just the bicycle core sequence) is titrated, such that it displaces the fluorescent tracer from the target protein. The displacement of the tracer is measured and associated with a drop in fluorescence polarisation. […]

[2] = system: MT1-MMP; assay: Species cross-reactivity with MT1-MMP; type: binding; details: murine, dog, cynomolgus and human MT1-MMP
[3] = Plasma stability in mouse serum; type: in vitro ADME; details: 4 μM concentration
Text: (§1) The stability appears to be slightly greater than that of the corresponding conjugates in which the peptide is linked to the scaffold by three thioether linkages.

[4] = Plasma stability in human serum; type: in vitro ADME; details: 4 μm concentration
Text: as §1

[5] = Tolerability in HT1080 tumor-bearing mice; details: mouse, in vivo; biw dosing, up to 14 days, BALB/c nude mice; read-out: tolerated dose
Protocol: BALB/c nude mice were inoculated subcutaneously at the right flank with HT1080 tumor cells […] in 0.2 ml of PBS for tumor development. 39 animals were randomized when the average tumor volume reached […].
The BDC compounds were formulated at 0.03 mg/ml in a vehicle buffer containing 25 mM histidine and 10% Sucrose. The formulations were administered twice weekly (biw) at 0.3, 1, 3 and 10 mg/kg. Tumor volume and body weight were measured up to 14 days from the first dosing.

CC(=O)N[C@@H](C)C(=O)N[C@H]1CN(C)Cc2cc3cc(c2)CN(C)C[C@@H](C(N)=O)NC(=O)[C@H](C(C)(C)C)NC(=O)[C@H](CC(=O)O)NC(=O)[C@H](Cc2ccc(O)cc2)NC(=O)[C@H](Cc2ccccc2)NC(=O)[C@H](CC(=O)O)NC(=O)[C@H](CCC(=O)O)NC(=O)[C@H](CSC3)NC(=O)[C@@H](C)NC(=O)[C@H](Cc2cccc3ccccc23)NC(=O)[C@H](CCC(=O)O)NC(=O)[C@H](CC(N)=O)NC(=O)[C@@H](C)NC1=O [17-69-07-N479, Ac-A(Dap(Me))(D-Ala)NE(1Nal)(D-Ala)CEDFYD(tBuGly)(Dap(Me))]
Ki [1]: 15.6 nM

C[C@H](NC(=O)CN(C)C(=O)CN(C)C(=O)CN(C)C(=O)CN(C)C(=O)CN(C)C(=O)CN(C)C(=O)CN(C)C(=O)CN(C)C(=O)CN(C)C(=O)CN(C)C(=O)CCN)C(=O)N[C@H]1CSCc2cc3cc(c2)CSC[C@H](NC(=O)[C@@H](C)NC(=O)[C@H](Cc2cccc4ccccc24)NC(=O)[C@H](CCC(=O)O)NC(=O)[C@H](CC(N)=O)NC(=O)[C@@H](C)NC1=O)C(=O)N[C@@H](CCC(=O)O)C(=O)N[C@@H](CC(=O)O)C(=O)N[C@@H](Cc1ccccc1)C(=O)N[C@@H](Cc1ccc(O)cc1)C(=O)N[C@@H](CC(=O)O)C(=O)N[C@@H](C(C)(C)C)C(=O)N[C@H](C(N)=O)CSC3 [17-69-07-N241, H-(β-Ala)-Sar10-Ala-Cys-(D-Ala)-Asn-Glu-(1Nal)-(D-Ala)-Cys-Glu-Asp-Phe-Tyr-Asp-(tBuGly)-Cys-NH2] (H-[βAla][Sar][Sar][Sar][Sar][Sar][Sar][Sar][Sar][Sar][Sar]AC[dA]NE[1Nal][dA]CEDFYD[Tle]C-NH2; linker 13-19-26 via TBMB)
cross-reactivity with MT1-MMP of other species [2]: fully cross reactive

17-69-07-N268: stabilised derivative of 17-69-07; Dap homologues have SEQ ID 17 (ACANEAACEDFYDGC; non-natural residues D-Ala, 1Nal, tBuGly, Dap; bicycle; VARIANT 2 /replace="Dap" or "N-AlkDap" or "N-HAlkDap"; MOD_RES 3 D-amino acid; MOD_RES 6 Fmoc-L-1-Naphthylalanine; MOD_RES 7 D-amino acid; VARIANT 8 /replace="Dap" or "N-AlkDap" or "N-HAlkDap"; MOD_RES 14 Fmoc-alpha-tert-butylglycine; VARIANT 15 /replace="Dap" or "N-AlkDap" or "N-HAlkDap"; MISC_FEATURE - /note="Variant residues given in the sequence have nopreference with respect to those in the a)
cross-reactivity with MT1-MMP of other species [2]: fully cross reactive

CC[C@H](C)[C@@H]([C@@H](CC(=O)N1CCC[C@H]1[C@H](OC)[C@@H](C)C(=O)N[C@H](C)[C@@H](O)c1ccccc1)OC)N(C)C(=O)[C@@H](NC(=O)[C@H](C(C)C)N(C)C(=O)OCc1ccc(NC(=O)[C@H](CCCNC(N)=O)NC(=O)[C@@H](NC(=O)Cn2cc(CCC(=O)NCCC(=O)N(C)CC(=O)N(C)CC(=O)N(C)CC(=O)N(C)CC(=O)N(C)CC(=O)N(C)CC(=O)N(C)CC(=O)N(C)CC(=O)N(C)CC(=O)N(C)CC(=O)N[C@@H](C)C(=O)N[C@H]3CNCc4cc5cc(c4)CSC[C@H](NC(=O)[C@@H](C)NC(=O)[C@H](Cc4cccc6ccccc46)NC(=O)[C@H](CCC(=O)O)NC(=O)[C@H](CC(N)=O)NC(=O)[C@@H](C)NC3=O)C(=O)N[C@@H](CCC(=O)O)C(=O)N[C@@H](CC(=O)O)C(=O)N[C@@H](Cc3ccccc3)C(=O)N[C@@H](Cc3ccc(O)cc3)C(=O)N[C@@H](CC(=O)O)C(=O)N[C@@H](C(C)(C)C)C(=O)N[C@H](C(N)=O)CNC5)nn2)C(C)C)cc1)C(C)C [BT17BDC-53]
T1/2 in mouse serum [3]: greater than 50 hours
T1/2 in human serum [4]: greater than 50 hours

CC[C@H](C)[C@@H]([C@@H](CC(=O)N1CCC[C@H]1[C@H](OC)[C@@H](C)C(=O)N[C@H](C)[C@@H](O)c1ccccc1)OC)N(C)C(=O)[C@@H](NC(=O)[C@H](C(C)C)N(C)C(=O)OCc1ccc(NC(=O)[C@H](CCCNC(N)=O)NC(=O)[C@@H](NC(=O)Cn2cc(CCC(=O)N[C@@H](C)C(=O)N[C@H]3CN(C)Cc4cc5cc(c4)CN(C)C[C@@H](C(N)=O)NC(=O)[C@H](C(C)(C)C)NC(=O)[C@H](CC(=O)O)NC(=O)[C@H](Cc4ccc(O)cc4)NC(=O)[C@H](Cc4ccccc4)NC(=O)[C@H](CC(=O)O)NC(=O)[C@H](CCC(=O)O)NC(=O)[C@H](CSC5)NC(=O)[C@@H](C)NC(=O)[C@H](Cc4cccc5ccccc45)NC(=O)[C@H](CCC(=O)O)NC(=O)[C@H](CC(N)=O)NC(=O)[C@@H](C)NC3=O)nn2)C(C)C)cc1)C(C)C [BT17BDC-62]
MTD [5]: ~5 mg/kg
